Data reported in patent US8680281B2, “Lactam inhibitors of 11-β-hydroxysteroid dehydrogenase 1” (Vitae Pharmaceuticals, Inc., priority 2008, dated 2014).

Target: human 11β-HSD1 (Homo sapiens, UniProt P28845)
Assay: Biological Test Example 1: inhibition of a microsomal preparation of 11β-HSD1 (SPA)
Type: biochemical
Conditions: microsomes from CHO cells overexpressing human 11β-HSD1; for inhibition at 0.1 µM: at 100 nM; for IC50: read-out: IC50 Range

Chain of human 11β-HSD1 (P28845 whole entry): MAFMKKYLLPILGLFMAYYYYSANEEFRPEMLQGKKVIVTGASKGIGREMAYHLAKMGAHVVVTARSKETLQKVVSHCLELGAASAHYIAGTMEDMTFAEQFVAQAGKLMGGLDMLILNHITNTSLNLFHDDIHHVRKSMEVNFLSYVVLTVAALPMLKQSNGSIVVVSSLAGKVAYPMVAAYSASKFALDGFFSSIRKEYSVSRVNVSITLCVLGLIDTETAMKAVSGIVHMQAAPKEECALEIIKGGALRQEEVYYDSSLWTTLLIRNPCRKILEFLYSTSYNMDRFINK

SMILES	inhibition at 0.1 µM [%]	IC50 [nM]
C[C@@H](c1ccc(Br)cc1)N1CC[C@](CC(C)(C)O)(c2ccccc2)CC1=O [EXAMPLE 7, (R)-1-((S)-1-(4-bromophenyl)ethyl)-4-(2-hydroxy-2-methylpropyl)-4-phenylpiperidin-2-one]	98	< 100
CC[C@@H](c1ccc(Br)cc1)N1CC[C@@](CC(C)(C)O)(c2ccccc2)CC1=O (single isomer, unassigned) [EXAMPLE 6 Isomer 2]	82.6	< 100
C[C@@H](c1ccc(-c2ccc(=O)n(C)c2)cc1)N1CC[C@](CC(C)(C)O)(c2ccccc2)CC1=O [EXAMPLE 9, 5-(4-((S)-1-((R)-4-(2-hydroxy-2-methylpropyl)-2-oxo-4-phenylpiperidin-1-yl)ethyl)phenyl)-1-methylpyridin-2(1H)-one]	92.7	< 100
C[C@@H](c1ccc(Br)cc1)N1CC[C@](CCO)(c2ccccc2)CC1=O (single isomer, unassigned) [EXAMPLE 2 Isomer 1]	101	< 100
C[C@@H](c1ccc(Br)cc1)N1CC[C@@](CCO)(c2ccccc2)CC1=O (single isomer, unassigned) [EXAMPLE 2 Isomer 2]	73.8	< 100
C[C@@H](c1ccc(Br)cc1)N1CC[C@](CCC(N)=O)(c2ccc(F)cc2)CC1=O (single isomer, unassigned) [EXAMPLE 4 Isomer 1]	96.8	< 100
C[C@@H](c1ccc(Br)cc1)N1CC[C@](CC(C)(C)C(N)=O)(c2ccccc2)CC1=O [EXAMPLE 11, 3-((S)-1-((S)-1-(4-bromophenyl)ethyl)-2-oxo-4-phenylpiperidin-4-yl)-2,2-dimethylpropanamide]	95.5	< 100
C[C@@H](c1ccc(-c2ccc(=O)[nH]c2)cc1)N1CC[C@](CC(C)(C)O)(c2ccccc2)CC1=O [EXAMPLE 13, 5-(4-((S)-1-((R)-4-(2-hydroxy-2-methylpropyl)-2-oxo-4-phenylpiperidin-1-yl)ethyl)phenyl)pyridin-2(1H)-one]	94.3	< 100
C[C@@H](c1ccc(Br)cc1)N1CC[C@@](CCC(N)=O)(c2ccc(F)cc2)CC1=O (single isomer, unassigned) [EXAMPLE 4 Isomer 2]	27.8	> 100
C[C@@H](c1ccc(-c2ccc(=O)n(C)c2)cc1)N1CC[C@@](CCCO)(c2ccc(F)cc2)CC1=O (single isomer, unassigned) [EXAMPLE 5 Isomer 2]	10.7	> 100
C[C@@H](c1ccc(-c2ccc(=O)n(C)c2)cc1)N1CC[C@](CCCO)(c2ccc(F)cc2)CC1=O (single isomer, unassigned) [EXAMPLE 5 Isomer 1]	94	< 100
CC[C@@H](c1ccc(Br)cc1)N1CC[C@](CC(C)(C)O)(c2ccccc2)CC1=O (single isomer, unassigned) [EXAMPLE 6 Isomer 1]	98.3	< 100
C[C@@H](c1ccc(-c2ccn(C)c(=O)c2)cc1)N1CC[C@](CC(C)(C)O)(c2ccccc2)CC1=O [EXAMPLE 8, 4-(4-((S)-1-((R)-4-(2-hydroxy-2-methylpropyl)-2-oxo-4-phenylpiperidin-1-yl)ethyl)phenyl)-1-methylpyridin-2(1H)-one]	93	< 100
C[C@@H](c1ccc(-c2cc[nH]c(=O)c2)cc1)N1CC[C@](CC(C)(C)O)(c2ccccc2)CC1=O [EXAMPLE 12, 4-(4-((S)-1-((R)-4-(2-hydroxy-2-methylpropyl)-2-oxo-4-phenylpiperidin-1-yl)ethyl)phenyl)pyridin-2(1H)-one]	95.9	< 100
C[C@@H](c1ccc(Br)cc1)N1CC[C@](CC(C)(C)C#N)(c2ccccc2)CC1=O [EXAMPLE 10, 3-((S)-1-((S)-1-(4-bromophenyl)ethyl)-2-oxo-4-phenylpiperidin-4-yl)-2,2-dimethylpropanenitrile]	96	< 100
C[C@@H](c1ccc(-c2ccc(F)cc2)cc1)N1CC[C@@](CCO)(c2ccccc2)CC1=O (single isomer, unassigned) [EXAMPLE 3 Isomer 2]	61.3	< 100
C[C@@H](c1ccc(-c2ccc(F)cc2)cc1)N1CC[C@](CCO)(c2ccccc2)CC1=O (single isomer, unassigned) [EXAMPLE 3 Isomer 1]	97.9	< 100
